According to US20230414626A1, “INDUCTION OF FERROPTOSIS FOR CANCER THERAPY” (Memorial Sloan Kettering Cancer Center, priority 2020, published 2023):

What was measured:
BT474 cells = assay: Cell death quantification (Sytox Green), RSL3-induced ferroptosis; assay type: cell-based, human; conditions: RSL3 0.5-1 μM, GDC-0941 2 μM, MK-2206 2 μM, Torin 1 μM, CCI-779 0.5 μM, Fatostatin A 5 μM, CAY10566 5 μM
Method: (§1) FIG. 1 A-D. Oncogenic activation of the PI3K-AKT-mTOR signaling pathway confers resistance to ferroptosis. (A) Genetic background of the analyzed cancer cell lines and their sensitivity to RSL3. (B) Cells were seeded in 96-well plate, 2×10^4 cells per well and incubated overnight. Cell death was induced by 24-h treatment of RSL3 with indicated concentrations. Cell death were measured by Sytox Green staining, as detailed in Methods. (C) Indicated protein components in the PI3K-AKT pathway were detected by western blot in indicated cell types. (D) Cells were treated with or without PI3K inhibitor GDC-0941 (2 μM), AKT inhibitor MK-2206 (2 μM), RSL3 (1 μM), or ferroptosis inhibitor Ferrostatin-1 (Fer-1, 1 μM) as indicated for 12 h (BT474) or 24 h (MDA-MB-453). Cell death was measured. Indicators for P values (same in all other figures): ****, P≤0.0001; *** P≤0.001; **, P≤0.01; *, P≤0.05; ns, P>0.05
(§2) FIG. 2 A-E. mTORC1, instead of mTORC2, suppresses ferroptosis. (A) MDA-MB-453 and BT474 were treated with CCI-779 (0.5 μM), RSL3 (1 μM for MDA-MB-453 cells and 0.5 μM for BT474 cells), and Fer-1 (1 μM) as indicated. (B) Cells were seeded in 6-well plate, 4×10^5 cells per well and incubated overnight. MDA-MB-453 and BT474 cells were treated as indicated. CCI-779, 0.5 μM; RSL3, 1 μM for MDA-MB-453 cells and 0.5 μM for BT474 cells; Fer-1, 1 μM. Cells were stained with 5 μM C1I-BODIPY followed by flow cytometry after 8 h-treatment. (C) 3D spheroids were treated as indicated. CCI-779, 0.5 μM; RSL3, 0.5 μM; Fer-1, 1 μM. Top panel, dead cells were stained by SYTOX Green (scale bar, 100 μm). Bottom panel, cell viability was assayed by measuring cellular ATP levels. (D) Cells expressing shRNAs targeting RPTOR or RICTOR were treated as indicated. CCI-779, 0.5 μM; RSL3, 0.5 μM; Fer-1, 1 μM. (E) Lipid peroxidation of samples as in panel D were measured.
(§3) FIG. 5 A-H. SREBP1 protects cells from ferroptosis through SCD1 activity. (A) The expression of SREBP1, and its targets SCD1, FASN, and ACACA, in control and SREBF1-sgRNA cells were detected by western blot. (B) The mRNA level of SREPF1 and its targets gene SCD were measured by RT-PCR. (C) Cells were pretreated with or without 5 μM CAY10566 overnight, and then subjected to the indicated treatments. RSL3, 0.5 μM for BT474 cells and 1 μM for MDA-MB-453 cells; CAY10566, 5 μM; Fer-1, 1 μM. (D) Cells expressing control or SCD-sgRNA were treated as indicated. RSL3, 1 μM for MDA-MB-453 cells and 0.5 μM for BT474 cells; Fer-1, 1 μM. (E) 3D spheroids derived from BT474 cells harboring control or SCD-sgRNA were treated as indicated. RSL3, 0.5 μM; CCI-779, 0.5 μM; Fer-1, 1 μM. Left, cell death staining (scale bar, 100 m). Right, cell viability. (F) SCD1 was overexpressed in BT474 cells and determined by western blot. Cells were treated as indicated. RSL3, 0.5 μM; CCI-779, 0.5 μM. (G) 3D spheroids derived from BT474 cells with control or SCD1 overexpression were treated as indicated. RSL3, 0.5 μM; CCI-779, 0.5 μM; Fer-1, 1 μM. Left, cell death staining (scale bar, 100 m). Right, cell viability. (H) Cells were treated as indicated. RSL3, 0.5 μM for BT474 and 1 μM for MDA-MB-453; CCI-779, 0.5 μM; Oleic acid (OA), 0.5 mM; stearic acid (SA), 0.5 mM.
(§4) FIG. 7 A-J. PI3K-AKT-mTOR signaling regulates ferroptosis sensitivity. (A) Cells were treated as indicated. GDC-0941, 2 μM; MK-2206, 2 μM; RSL3, 1 μM; Fer-1, 1 μM. Lipid peroxidation was measured. (B) Cells were treated with indicated conditions. Torin, 1 μM; RSL3, 1 μM for MDA-MB-453 cells and 0.5 μM for BT474 cells; Fer-1, 1 μM. Cell death was measured. (C) Cells were treated with indicated conditions. RSL3, 10 μM for MCF cells and PC-3 cells, 5 μM for T47D cells, 1 μM for HepG2 cells; Torin, 1 μM; CCI-779, 0.5 μM. (D) Cells were treated as indicated. CCI-779, 0.5 μM; Torin, 1 μM; Fer-1, 1 μM. Cell death was staining by propidium iodide (PI) (red) or Sytox Green (green) (scale bar, 100 μm). (E-F) 3D spheroids for MDA-MB-453 cells and MCF7 cells were treated as indicated. […]

MDA-MB-453 cells = assay: as above; assay type: cell-based, human; conditions: RSL3 1 μM, GDC-0941 2 μM, MK-2206 2 μM, Torin 1 μM, CCI-779 0.5 μM, Fatostatin A 5 μM, CAY10566 5 μM
Method: as §1, §2, §3, §4

Structure (SMILES) | sensitization to ferroptosis (cell death) induced by RSL3 (BT474 cells) | sensitization to ferroptosis (cell death) induced by RSL3 (MDA-MB-453 cells)
CCC(=O)N1CCN(c2ccc(-n3c(=O)ccc4cnc5ccc(-c6cnc7ccccc7c6)cc5c43)cc2C(F)(F)F)CC1 [Torin] | sensitized | sensitized
CCCc1cc(-c2nc(-c3ccc(C)cc3)cs2)ccn1 [Fatostatin A] | sensitized ferroptosis | sensitized ferroptosis
CO[C@H]1C[C@@H]2CC[C@@H](C)[C@@](O)(O2)C(=O)C(=O)N2CCCC[C@H]2C(=O)O[C@H]([C@H](C)C[C@@H]2CC[C@@H](OC(=O)C(C)(CO)CO)[C@H](OC)C2)CC(=O)[C@H](C)/C=C(\C)[C@@H](O)[C@@H](OC)C(=O)[C@H](C)C[C@H](C)/C=C/C=C/C=C/1C [CCI-779, Temsirolimus] | sensitize | sensitize
NC1(c2ccc(-c3nc4ccn5c(=O)[nH]nc5c4cc3-c3ccccc3)cc2)CCC1 [MK-2206] | sensitized | sensitized
Cc1nnc(-c2ccc(N3CCC(Oc4cc(F)ccc4Cl)CC3)nn2)o1 [CAY10566] | sensitized the effect of RSL3 | sensitized the effect of RSL3
CS(=O)(=O)N1CCN(Cc2cc3nc(-c4cccc5[nH]ncc45)nc(N4CCOCC4)c3s2)CC1 [GDC-0941] | sensitized | sensitized
